How the values were obtained:
KRas^G12V = target: T1, KRas^G12V (Homo sapiens, UniProt P01116, G12V); experiment: KRas binding assay (TR-FRET tracer displacement), KRas G12V
T1 construct: Biotinylated KRas (corresponding to amino acids 1-169, produced at Accelegan Inc.); biotin (biotinylated); purchased Accelegan Inc

KRas^G12D = target: T2, KRas^G12D (Homo sapiens, UniProt P01116, G12D); experiment: KRas binding assay (TR-FRET tracer displacement), KRas G12D
T2 construct: Biotinylated KRas (corresponding to amino acids 1-169, produced at Accelegan Inc.); biotin (biotinylated); purchased Accelegan Inc

[1] = test system: KRas-mediated phosphorylation of ERK in AsPC-1 cells; experiment: Inhibition of KRas-mediated phosphorylation of ERK (Cisbio HTRF pERK), AsPC-1 cells; assay type: cell-based; conditions: Homo sapiens; for IC50: ASPC1, AsPC-1 cells, HTRF pERK
How it was run: (§1)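 Following a 3-hr exposure of cells to serially diluted compound (from 10 uM, 3-fold, 10 doses), cold lysis for 40 mins preceded a 2-hr room-temperature HTRF immunoassay for phosphorylated ERK.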

KRas^WT = target: T3, KRas^WT (Homo sapiens, UniProt P01116); experiment: KRas binding assay (TR-FRET tracer displacement), KRas WT; conditions: TR-FRET tracer displacement, KRas WT
T3 construct: Biotinylated KRas (corresponding to amino acids 1-169, produced at Accelegan Inc.); biotin (biotinylated); purchased Accelegan Inc

KRas^G12A = target: T4, KRas^G12A (Homo sapiens, UniProt P01116, G12A); experiment: KRas binding assay (TR-FRET tracer displacement), KRas G12A; conditions: TR-FRET tracer displacement, KRas G12A
T4 construct: Biotinylated KRas (corresponding to amino acids 1-169, produced at Accelegan Inc.); biotin (biotinylated); purchased Accelegan Inc

KRas^G12C = target: T5, KRas^G12C (Homo sapiens, UniProt P01116, G12C); experiment: KRas binding assay (TR-FRET tracer displacement), KRas G12C; conditions: TR-FRET tracer displacement, KRas G12C
T5 construct: Biotinylated KRas (corresponding to amino acids 1-169, produced at Accelegan Inc.); biotin (biotinylated); purchased Accelegan Inc

KRas^Q61H = target: T6, KRas^Q61H (Homo sapiens, UniProt P01116, Q61H); experiment: KRas binding assay (TR-FRET tracer displacement), KRas Q61H; conditions: TR-FRET tracer displacement, KRas Q61H
T6 construct: Biotinylated KRas (corresponding to amino acids 1-169, produced at Accelegan Inc.); biotin (biotinylated); purchased Accelegan Inc

[2] = test system: KRas-mediated phosphorylation of ERK in MKN1 cells; experiment: Inhibition of KRas-mediated phosphorylation of ERK (Cisbio HTRF pERK), MKN1 cells; assay type: cell-based; conditions: Homo sapiens, MKN-1
How it was run: (§2)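 Day 1 seeding: 6,000 cells per well, RPMI/10% FBS, left overnight at 37° C. with 5% CO2. Plates then stood covered for 4 h at room temperature prior to HTRF detection of pERK.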

[3] = test system: KRas-mediated phosphorylation of ERK in H727 cells; experiment: Inhibition of KRas-mediated phosphorylation of ERK (Cisbio HTRF pERK), H727 cells; assay type: cell-based; conditions: Homo sapiens; for IC50: NCI-H727, H727 cells, HTRF pERK
How it was run: as §1

KRas^G12S = target: T7, KRas^G12S (Homo sapiens, UniProt P01116, G12S); experiment: KRas binding assay (TR-FRET tracer displacement), KRas G12S; conditions: TR-FRET tracer displacement, KRas G12S
T7 construct: Biotinylated KRas (corresponding to amino acids 1-169, produced at Accelegan Inc.); biotin (biotinylated); purchased Accelegan Inc

KRas^G13D = target: T8, KRas^G13D (Homo sapiens, UniProt P01116, G13D); experiment: KRas binding assay (TR-FRET tracer displacement), KRas G13D; conditions: TR-FRET tracer displacement, KRas G13D
T8 construct: Biotinylated KRas (corresponding to amino acids 1-169, produced at Accelegan Inc.); biotin (biotinylated); purchased Accelegan Inc

[4] = test system: KRas-mediated phosphorylation of ERK in PSN1 cells; experiment: Inhibition of KRas-mediated phosphorylation of ERK (Cisbio HTRF pERK), PSN1 cells; assay type: cell-based; conditions: Homo sapiens
How it was run: as §2

KRas^G12R = target: T9, KRas^G12R (Homo sapiens, UniProt P01116, G12R); experiment: KRas binding assay (TR-FRET tracer displacement), KRas G12R
T9 construct: Biotinylated KRas (corresponding to amino acids 1-169, produced at Accelegan Inc.); biotin (biotinylated); purchased Accelegan Inc

[5] = test system: KRas-mediated phosphorylation of ERK in HCT116 cells; experiment: Inhibition of KRas-mediated phosphorylation of ERK (Cisbio HTRF pERK), HCT116 cells; assay type: cell-based; conditions: Homo sapiens; for inhibition at 0.1 µM: HCT-116, 3 h, single point, 100 nM compound, 3 hrs; for IC50: HCT-116, HTRF pERK
How it was run: (§3)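 Min control wells contained 0.2 uM Trametinib, while test compounds ran as 10 doses (3-fold, top 10 uM; 0.8% DMSO final) on cells for 3 hrs. After 40 mins lysis at 4° C, lysates were probed with HTRF antibodies for 2 hrs at room temperature.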

[6] = test system: KRas-mediated phosphorylation of ERK in H460 cells; experiment: Inhibition of KRas-mediated phosphorylation of ERK (Cisbio HTRF pERK), H460 cells; assay type: cell-based; conditions: Homo sapiens; for inhibition at 0.1 µM: NCI-H460, 3 h, single point, 100 nM compound, 3 hrs
How it was run: as §1

[7] = test system: KRas-mediated phosphorylation of ERK in A549 cells; experiment: Inhibition of KRas-mediated phosphorylation of ERK (Cisbio HTRF pERK), A549 cells; assay type: cell-based; conditions: Homo sapiens; for inhibition at 0.1 µM: A549, 3 h, single point, 100 nM compound, 3 hrs; for IC50: HTRF pERK
How it was run: as §3

[8] = test system: KRas-mediated phosphorylation of ERK in H358 cells; experiment: Inhibition of KRas-mediated phosphorylation of ERK (Cisbio HTRF pERK), H358 cells; assay type: cell-based; conditions: Homo sapiens; for inhibition at 0.1 µM: NCI-H358, 3 h, single point, 100 nM compound, 3 hrs
How it was run: as §1

T4 sequence (P01116 1-169 isoform P01116-2 G12A): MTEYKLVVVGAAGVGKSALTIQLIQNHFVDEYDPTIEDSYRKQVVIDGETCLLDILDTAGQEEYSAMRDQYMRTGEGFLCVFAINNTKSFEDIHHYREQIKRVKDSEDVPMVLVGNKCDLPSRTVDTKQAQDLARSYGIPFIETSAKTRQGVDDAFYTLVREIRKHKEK
T2 sequence (P01116 1-169 isoform P01116-2 G12D): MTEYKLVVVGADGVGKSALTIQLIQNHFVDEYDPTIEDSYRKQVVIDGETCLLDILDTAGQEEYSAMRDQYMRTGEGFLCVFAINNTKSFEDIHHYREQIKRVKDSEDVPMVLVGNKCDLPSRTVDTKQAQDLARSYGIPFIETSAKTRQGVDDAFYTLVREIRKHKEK
T6 sequence (P01116 1-169 isoform P01116-2 Q61H): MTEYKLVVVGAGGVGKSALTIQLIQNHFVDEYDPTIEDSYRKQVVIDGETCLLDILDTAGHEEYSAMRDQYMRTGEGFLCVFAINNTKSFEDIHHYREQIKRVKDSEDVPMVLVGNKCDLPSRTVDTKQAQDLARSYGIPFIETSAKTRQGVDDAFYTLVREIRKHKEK
T9 sequence (P01116 1-169 isoform P01116-2 G12R): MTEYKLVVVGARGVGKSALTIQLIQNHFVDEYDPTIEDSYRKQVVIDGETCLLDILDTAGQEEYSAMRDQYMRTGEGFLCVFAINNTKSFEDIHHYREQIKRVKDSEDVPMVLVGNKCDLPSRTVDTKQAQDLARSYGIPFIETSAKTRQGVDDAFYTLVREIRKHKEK
T3 sequence (P01116 1-169 isoform P01116-2): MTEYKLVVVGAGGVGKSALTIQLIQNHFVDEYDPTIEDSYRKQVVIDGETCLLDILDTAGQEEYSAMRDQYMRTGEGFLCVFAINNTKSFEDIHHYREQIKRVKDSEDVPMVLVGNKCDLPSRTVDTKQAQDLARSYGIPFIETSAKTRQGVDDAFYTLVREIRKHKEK
T7 sequence (P01116 1-169 isoform P01116-2 G12S): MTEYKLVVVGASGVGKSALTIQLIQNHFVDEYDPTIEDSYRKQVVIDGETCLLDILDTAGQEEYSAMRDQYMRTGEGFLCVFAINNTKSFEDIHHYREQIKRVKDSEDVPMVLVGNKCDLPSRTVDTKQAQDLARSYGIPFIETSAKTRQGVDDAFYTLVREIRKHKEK
T8 sequence (P01116 1-169 isoform P01116-2 G13D): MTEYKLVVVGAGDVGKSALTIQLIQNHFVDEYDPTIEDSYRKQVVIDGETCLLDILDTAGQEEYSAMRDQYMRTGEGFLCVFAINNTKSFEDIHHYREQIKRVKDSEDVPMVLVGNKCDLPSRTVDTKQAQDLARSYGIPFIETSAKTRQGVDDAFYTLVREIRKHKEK
T1 sequence (P01116 1-169 isoform P01116-2 G12V): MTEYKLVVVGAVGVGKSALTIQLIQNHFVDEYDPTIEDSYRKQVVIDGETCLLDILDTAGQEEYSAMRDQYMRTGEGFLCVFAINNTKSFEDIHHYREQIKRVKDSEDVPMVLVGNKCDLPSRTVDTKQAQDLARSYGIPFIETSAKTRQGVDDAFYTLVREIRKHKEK
T5 sequence (P01116 1-169 isoform P01116-2 G12C): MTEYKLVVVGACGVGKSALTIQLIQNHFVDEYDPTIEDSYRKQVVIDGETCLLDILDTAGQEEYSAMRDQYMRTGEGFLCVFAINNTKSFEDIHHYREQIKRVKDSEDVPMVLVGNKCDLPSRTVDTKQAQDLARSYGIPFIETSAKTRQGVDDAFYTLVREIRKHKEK

Row | Structure (SMILES) | IC50 (KRas^G12V) | IC50 (KRas^G12D) | IC50 [1] | IC50 (KRas^WT) | IC50 (KRas^G12A) | IC50 (KRas^G12C) | IC50 (KRas^Q61H) | IC50 [2] | IC50 [3] | IC50 (KRas^G12S) | IC50 (KRas^G13D) | IC50 [4] | IC50 (KRas^G12R) | inhibition at 0.1 µM [5] | inhibition at 0.1 µM [6] | inhibition at 0.1 µM [7] | inhibition at 0.1 µM [8] | further results
1 | Cc1cc2[nH]ncc2c(-c2ncc3c(N4CCCC5(C4)NC(=O)NC5=O)nc(OCC45CCCN4CCC5)nc3c2F)c1C (centres unmarked) [Example 728, 7-(7-(5,6-dimethyl-1H-indazol-4-yl)-8-fluoro-2-((hexahydro-1H-pyrrolizin-7a-yl)methoxy)pyrido[4,3-d]pyrimidin-4-yl)-1,3,7-triazaspiro[4.5]decane-2,4-dione] | 23 nM | 60 nM | 2510 nM | 34 nM | 35 nM | 31 nM | 40 nM | > 10000 nM | 2510 nM | 31 nM | 37 nM | > 10000 nM | 34 nM |  |  |  |  | 
2 | CN(C)C(=O)c1cc2n(n1)CCCN(c1nc(OCC34CCCN3CCC4)nc3c(F)c(-c4c(C5CC5)c(Cl)cc5[nH]ncc45)ncc13)C2 [Example 881, 5-(7-(6-chloro-5-cyclopropyl-1H-indazol-4-yl)-8-fluoro-2-((tetrahydro-1H-pyrrolizin-7a(5H)-yl)methoxy)pyrido[4,3-d]pyrimidin-4-yl)-N,N-dimethyl-5,6,7,8-tetrahydro-4H-pyrazolo[1,5-a][1,4]diazepine-2-carboxamide] | 4 nM | 2 nM | > 10000 nM | 22 nM | 14 nM | 7 nM | 22 nM | > 10000 nM | > 10000 nM | 7 nM | 25 nM | > 10000 nM | 11 nM |  |  |  |  | 
3 | CN(C)C(=O)c1cc2n(n1)CCCN(c1nc(OC[C@@]34CCCN3C[C@H](F)C4)nc3c(F)c(-c4c5ccccc5cc5[nH]ncc45)ncc13)C2 [Example 761, 5-(7-(1H-benzo[f]indazol-4-yl)-8-fluoro-2-(((2R,7aS)-2-fluorohexahydro-1H-pyrrolizin-7a-yl)methoxy)pyrido[4,3-d]pyrimidin-4-yl)-N,N-dimethyl-5,6,7,8-tetrahydro-4H-pyrazolo[1,5-a][1,4]diazepine-2-carboxamide] | 23 nM | 8 nM | 4320 nM | 106 nM | 65 nM | 41 nM | 151 nM | > 10000 nM | 1280 nM | 33 nM | 177 nM | > 10000 nM | 74 nM | -13% | 11% |  |  | 
4 | O=C1NC(=O)[C@]2(CCCN(c3nc(OC[C@@]45CCCN4C[C@H](F)C5)nc4c(F)c(-c5c(C6CC6)c(Cl)cc6[nH]ncc56)ncc34)C2)N1 [Example 780, (5R)-7-(7-(6-chloro-5-cyclopropyl-1H-indazol-4-yl)-8-fluoro-2-(((2R,7aS)-2-fluorohexahydro-1H-pyrrolizin-7a-yl)methoxy)pyrido[4,3-d]pyrimidin-4-yl)-1,3,7-triazaspiro[4.5]decane-2,4-dione] | < 2 nM | < 2 nM | 784 nM | < 2 nM | < 2 nM | < 2 nM | < 2 nM |  | 340 nM | < 2 nM | < 2 nM |  | < 2 nM | -2% | -8% | 21% | 42% | IC50 [7]: 412 nM; inhibition at 0.1 µM ([1]; ASPC1, 3 h, single point, 100 nM compound, 3 hrs, AsPC-1 cells): -12%; IC50 [5]: 557 nM; IC50 ([8]; NCI-H358, HTRF pERK): 33 nM; IC50 ([6]; NCI-H460, HTRF pERK): 246 nM; inhibition at 0.1 µM ([3]; NCI-H727, 3 h, single point, 100 nM compound, 3 hrs, H727 cells): 30%
5 | Oc1cc(Cl)c(C2CC2)c(-c2ncc3c(N4CCC[C@]5(C4)C[C@H](O)C5)nc(OCC45CCCN4CCC5)nc3c2F)c1 [Example 742, (2s,4r)-6-(7-(3-chloro-2-cyclopropyl-5-hydroxyphenyl)-8-fluoro-2-((tetrahydro-1H-pyrrolizin-7a(5H)-yl)methoxy)pyrido[4,3-d]pyrimidin-4-yl)-6-azaspiro[3.5]nonan-2-ol] | < 2 nM | < 2 nM | 1600 nM | 3 nM | < 2 nM | < 2 nM | < 2 nM | 624 nM | 292 nM | 2 nM | 3 nM | > 10000 nM | < 2 nM |  |  |  |  | IC50 [7]: 2610 nM; IC50 [5]: 1790 nM
6 | Cc1ccc2c(-c3ncc4c(N5C[C@@H]6C[C@H](C5)[C@H](O)C6)nc(OC[C@@]56CCCN5C[C@H](F)C6)nc4c3F)cc(O)cc2c1 [Example 746, (1R,5R,6R)-3-(8-fluoro-2-(((2R,7aS)-2-fluorotetrahydro-1H-pyrrolizin-7a(5H)-yl)methoxy)-7-(3-hydroxy-6-methylnaphthalen-1-yl)pyrido[4,3-d]pyrimidin-4-yl)-3-azabicyclo[3.2.1]octan-6-ol] | 59 nM | 226 nM | 2260 nM | 117 nM | 82 nM | 106 nM | 166 nM |  | 1340 nM | 64 nM | 107 nM |  | 68 nM | 10% | 2% | -19% | -17% | 
7 | CCc1cccc2cc3[nH]ncc3c(-c3ncc4c(N5CCCC6(CNS(=O)(=O)N6)C5)nc(OC[C@@]56CCCN5C[C@H](F)C6)nc4c3F)c12 (stereo partly drawn) [Example 772, 7-(7-(5-ethyl-1H-benzo[f]indazol-4-yl)-8-fluoro-2-(((2R,7aS)-2-fluorohexahydro-1H-pyrrolizin-7a-yl)methoxy)pyrido[4,3-d]pyrimidin-4-yl)-2-thia-1,3,7-triazaspiro[4.5]decane 2,2-dioxide] | 5 nM | 7 nM | 2230 nM | 4 nM | 5 nM | 7 nM | 3 nM |  | 2670 nM | 5 nM | 4 nM |  | 12 nM | 3% | 19% | 22% | -4% | 
8 | O=S1(=O)NCC2(CCCN(c3nc(OCC45CCCN4CCC5)nc4c(F)c(-c5c6ccccc6cc6[nH]ncc56)ncc34)C2)N1 (centres unmarked) [Example 758, 7-(7-(1H-benzo[f]indazol-4-yl)-8-fluoro-2-((hexahydro-1H-pyrrolizin-7a-yl)methoxy)pyrido[4,3-d]pyrimidin-4-yl)-2-thia-1,3,7-triazaspiro[4.5]decane 2,2-dioxide] | < 2 nM | 5 nM | 1270 nM | < 2 nM | < 2 nM | < 2 nM | < 2 nM |  | 1780 nM | < 2 nM | < 2 nM |  | < 2 nM | 20% | 9% | 11% | 23% | 

From US20260015350A1, “AZAQUINAZOLINE PAN-KRAS INHIBITORS” (Mirati Therapeutics, Inc., priority 2022, published 2026)
